According to patent US20260184759A1, “CHIMERIC ANTIGEN RECEPTORS SPECIFIC FOR CONJUGATED BIOTIN” (Seattle Children's Hospital (dba Seattle Children's …, priority 2022, published 2026):

How the values were obtained:
[1] = system: anti-conjugated biotin CAR T cells; assay: ICCS assay with unconjugated biotin added to the co-incubation; format: cell-based, human; conditions: 0 ng, 100 ng, 500 ng, 2 ug unconjugated biotin during 4-hour co-incubation with labelled targets
Description: Additionally, unconjugated biotin was added to co-incubating cells for the entire 4-hour co-incubation to determine whether unconjugated biotin can block anti-conjugated biotin binding to target cells. Unconjugated biotin was added at 4 different doses: 0 ng (no competition), 100 ng, 500 ng, and 2 ug. […] The cells were then assessed for production of the intracellular cytokines IFN, IL2, and TNF.
Cytokine expression and activation/exhaustion markers of anti-biotin CAR T cells stimulated with targets cells were examined by ICCS. Target cells were labeled with appropriate intermediate adaptors and washed. T cells were then co-incubated with labeled and unlabeled target cells at an E:T ratio of 1:1 for 4 hours in the presence of Protein Transport Inhibitor (ThermoFisher Scientific) to block cytokine secretion. Cells were incubated in the appropriate medium for each target line. 100× Cell Stimulation Cocktail (ThermoFisher Scientific) was used as a positive control. An anti-CD107a BV711 antibody (BioLegend) was also included with the cells during the incubation. Cells were then labeled for dead cells using FVS520 live/dead stain (BD Horizon), washed, and subsequently FcR Blocked (Miltenyi Biotec). Surface markers were then stained using anti-CD4 PacBlue(BioLegend), anti-CD8 PerCP/Cy5.5 (Biolegend), and erbitux-APC (BD Biosciences). […]

[2] = system: anti-conjugated biotin CARs; assay: Competition assay against biotin-PEG-Cy5 binding (flow cytometry); set-up: species or system human; conditions: 440 nM biotin-PEG-Cy5 with 0.2, 1, 5 or 20 nM competitor, 30 minutes, room temperature
Description: First, cells expressing various CARs were incubated with 440 nM of biotin-PEG-Cy5 (FIG. 6) for 30 minutes at room temperature. Concurrently, they were exposed to 0 nM (no competition), 0.2 nM, 1 nM, 5 nM, or 20 nM of either unconjugated biotin or a non-fluorescent conjugated biotin (FIG. 7A).
One differentiating factor for this CAR when compared with other biotin-binding receptors previously described^28,29,31 is that the CAR may bind any biotin derivative but not the unmodified molecule itself (FIG. 2B). To confirm this selective binding to biotin conjugates, the panel of CAR T cells was incubated with 440 nM of a biotin-PEG-Cy5 conjugate, and titrated doses (20 nM, 5 nM, 1 nM, and 0.2 nM) of competition were incubated concurrently with the soluble antigen. Competition included another conjugated biotin, biotin-PEG2k-folate (FIG. 7A), and unmodified biotin (FIG. 7B).
To confirm anti-biotin CAR T cell binding to conjugated biotin, 440 nM of a 1.1 kDa biotin-PEG-Cy5 (Click Chemistry Tools) conjugate was incubated with the cells for 30 min at room temperature. For the competition assay, 0.2 nM, 1 nM, 5 nM, or 20 nM of either 2 kDa biotin-folate (NanoCS) or unconjugated biotin (Sigma-Adrich) were incubated concurrently with the cells and biotin-PEG-Cy5. Cells were washed and fixed in a 0.5% paraformaldehyde solution. […]

O=C(O)CCCC[C@@H]1SC[C@@H]2NC(=O)N[C@@H]21 [unconjugated biotin, biotin]
impact of unconjugated biotin on activation markers (CD8+ CAR T cells) [1]: no impact on the activation profiles of the CAR T cells | impact of unconjugated biotin on intracellular cytokines (CD4+ CAR T cells) [1]: no impact on the activation profiles of the CAR T cells | MFI of biotin-PEG-Cy5 binding under competition [2]: not negatively impacted in their ability to bind biotin conjugated to fluorescent Cy5 | MFI of biotin-PEG-Cy5 binding under competition ([2]; listed as unmodified biotin): no decrease in MFI
